Results taken from ChEMBL document CHEMBL4609983, “Pan-specific and partially selective dye-labeled peptidic inhibitors of the polycomb paralog proteins” (Bioorg Med Chem, 2020).
The source made the active and inactive calls. Non-standard residues stand in square brackets, D forms with d. Residues, ends and D or L forms follow the SMILES beside them. *: point of attachment. Biotin = O=C1N[C@H]2[C@H](CS[C@H]2CCCCC(=O)*)N1; Lys(Me3) = C[N+](C)(C)CCCC[C@H](N)C(=O)O; Benzoyl(4-Br) = O=C(c1ccc(Br)cc1)*

Key:
[1] = molecular target: T1, Testis-specific chromodomain protein Y 1 (Homo sapiens) (UniProt Q9Y6F8); assay: Binding affinity to recombinant human CDY1 by microarray based assay
T1 sequence (whole entry): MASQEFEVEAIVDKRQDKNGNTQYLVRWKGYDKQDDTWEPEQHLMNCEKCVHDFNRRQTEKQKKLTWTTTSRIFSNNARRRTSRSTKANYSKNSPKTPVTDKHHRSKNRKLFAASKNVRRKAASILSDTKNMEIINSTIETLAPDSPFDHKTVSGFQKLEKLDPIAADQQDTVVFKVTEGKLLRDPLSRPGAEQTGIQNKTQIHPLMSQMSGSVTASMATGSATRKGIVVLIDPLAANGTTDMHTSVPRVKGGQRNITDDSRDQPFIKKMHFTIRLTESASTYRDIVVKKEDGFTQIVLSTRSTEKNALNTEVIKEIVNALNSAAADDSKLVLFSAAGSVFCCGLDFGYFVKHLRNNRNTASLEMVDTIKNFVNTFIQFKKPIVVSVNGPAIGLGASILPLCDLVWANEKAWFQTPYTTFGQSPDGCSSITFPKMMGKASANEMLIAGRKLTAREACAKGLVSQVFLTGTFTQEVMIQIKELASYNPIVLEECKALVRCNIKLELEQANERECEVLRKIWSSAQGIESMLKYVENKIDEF

[2] = molecular target: T2, Chromodomain Y-like protein 2 (Homo sapiens) (UniProt Q8N8U2); assay: Binding affinity to recombinant human CDYL2 by microarray based assay
T2 sequence (whole entry): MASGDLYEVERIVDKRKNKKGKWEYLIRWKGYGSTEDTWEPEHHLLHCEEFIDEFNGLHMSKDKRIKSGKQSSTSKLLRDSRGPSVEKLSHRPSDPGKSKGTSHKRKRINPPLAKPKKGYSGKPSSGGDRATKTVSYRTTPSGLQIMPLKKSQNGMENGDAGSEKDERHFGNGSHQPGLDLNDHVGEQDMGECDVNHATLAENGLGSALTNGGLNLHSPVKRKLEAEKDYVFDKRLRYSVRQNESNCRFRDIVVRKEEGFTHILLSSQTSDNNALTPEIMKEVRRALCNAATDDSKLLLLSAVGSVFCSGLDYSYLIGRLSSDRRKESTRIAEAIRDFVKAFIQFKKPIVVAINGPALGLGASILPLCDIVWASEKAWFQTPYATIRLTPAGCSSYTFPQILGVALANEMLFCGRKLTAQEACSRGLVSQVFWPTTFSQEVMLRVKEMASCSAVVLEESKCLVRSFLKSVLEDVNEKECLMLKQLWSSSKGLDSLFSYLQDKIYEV

[3] = molecular target: T3, Chromodomain Y-like protein (Homo sapiens) (UniProt Q9Y232); assay: Binding affinity to recombinant human CDYL1B by microarray based assay
T3 sequence (whole entry): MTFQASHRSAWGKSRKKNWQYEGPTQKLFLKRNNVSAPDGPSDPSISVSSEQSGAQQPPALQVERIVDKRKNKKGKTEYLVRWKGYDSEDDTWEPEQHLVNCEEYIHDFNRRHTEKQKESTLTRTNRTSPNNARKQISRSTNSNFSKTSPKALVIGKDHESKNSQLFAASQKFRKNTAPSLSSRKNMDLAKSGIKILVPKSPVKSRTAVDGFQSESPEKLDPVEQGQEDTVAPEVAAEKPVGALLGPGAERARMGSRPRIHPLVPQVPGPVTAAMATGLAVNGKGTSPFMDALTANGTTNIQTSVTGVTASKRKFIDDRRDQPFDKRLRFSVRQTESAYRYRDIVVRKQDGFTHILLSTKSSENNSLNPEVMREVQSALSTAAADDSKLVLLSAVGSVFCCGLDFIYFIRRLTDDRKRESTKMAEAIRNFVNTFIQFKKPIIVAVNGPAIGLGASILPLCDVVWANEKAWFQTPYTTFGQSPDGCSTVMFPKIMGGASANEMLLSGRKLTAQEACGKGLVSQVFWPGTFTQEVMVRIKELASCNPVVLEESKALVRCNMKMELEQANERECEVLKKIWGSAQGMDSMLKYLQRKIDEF

[4] = molecular target: Mortality factor 4-like protein 1 (Homo sapiens) (UniProt Q9UBU8); assay: Binding affinity to recombinant human MORF4L1 by microarray based assay
[5] = molecular target: T4, Chromobox protein homolog 2 (Homo sapiens) (UniProt Q14781); assay: Binding affinity to recombinant human CBX2 by microarray based assay
T4 sequence (whole entry): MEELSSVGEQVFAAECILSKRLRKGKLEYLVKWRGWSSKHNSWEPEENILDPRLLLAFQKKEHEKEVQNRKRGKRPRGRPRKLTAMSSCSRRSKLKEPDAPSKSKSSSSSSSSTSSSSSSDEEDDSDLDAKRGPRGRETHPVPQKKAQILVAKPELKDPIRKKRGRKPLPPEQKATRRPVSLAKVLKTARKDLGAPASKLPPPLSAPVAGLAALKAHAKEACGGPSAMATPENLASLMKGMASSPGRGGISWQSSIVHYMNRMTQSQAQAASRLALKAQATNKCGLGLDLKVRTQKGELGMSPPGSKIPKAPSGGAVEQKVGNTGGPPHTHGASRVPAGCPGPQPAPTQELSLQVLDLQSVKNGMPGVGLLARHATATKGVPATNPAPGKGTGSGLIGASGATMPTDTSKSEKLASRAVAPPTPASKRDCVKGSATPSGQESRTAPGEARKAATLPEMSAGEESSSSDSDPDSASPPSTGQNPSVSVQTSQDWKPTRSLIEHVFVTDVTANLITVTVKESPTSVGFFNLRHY

[6] = molecular target: T5, E3 SUMO-protein ligase CBX4 (Homo sapiens) (UniProt O00257); assay: Binding affinity to recombinant human CBX4 by microarray based assay
T5 sequence (whole entry): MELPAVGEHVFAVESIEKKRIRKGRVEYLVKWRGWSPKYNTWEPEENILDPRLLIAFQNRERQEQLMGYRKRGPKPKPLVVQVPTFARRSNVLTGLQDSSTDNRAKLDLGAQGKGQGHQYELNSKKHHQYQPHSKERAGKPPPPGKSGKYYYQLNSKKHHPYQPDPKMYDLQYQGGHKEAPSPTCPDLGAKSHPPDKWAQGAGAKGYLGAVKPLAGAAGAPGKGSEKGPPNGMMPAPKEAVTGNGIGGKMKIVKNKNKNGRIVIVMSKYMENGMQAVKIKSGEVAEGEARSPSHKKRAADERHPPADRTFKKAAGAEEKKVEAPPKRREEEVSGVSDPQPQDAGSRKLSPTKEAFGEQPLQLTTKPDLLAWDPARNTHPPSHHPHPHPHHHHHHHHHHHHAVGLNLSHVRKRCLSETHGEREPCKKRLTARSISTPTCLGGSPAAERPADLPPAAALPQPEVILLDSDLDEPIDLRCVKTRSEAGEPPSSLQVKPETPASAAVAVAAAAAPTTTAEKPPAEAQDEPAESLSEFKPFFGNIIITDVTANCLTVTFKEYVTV

Measured: Activity

Mortality factor 4-like protein 1 (Homo sapiens), sequence (Q9UBU8 whole entry): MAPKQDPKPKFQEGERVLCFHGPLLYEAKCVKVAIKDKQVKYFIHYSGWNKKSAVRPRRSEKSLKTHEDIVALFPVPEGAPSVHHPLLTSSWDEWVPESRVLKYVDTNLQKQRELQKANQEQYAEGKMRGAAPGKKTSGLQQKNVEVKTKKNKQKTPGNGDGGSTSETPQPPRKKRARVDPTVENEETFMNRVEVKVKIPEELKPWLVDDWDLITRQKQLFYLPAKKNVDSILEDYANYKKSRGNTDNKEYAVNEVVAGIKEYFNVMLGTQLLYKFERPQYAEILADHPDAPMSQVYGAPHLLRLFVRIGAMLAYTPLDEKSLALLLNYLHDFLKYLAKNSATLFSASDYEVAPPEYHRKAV

CC(C)C[C@H](NC(=O)[C@H](CO)NC(=O)[C@H](CCCC[N+](C)(C)C)NC(=O)[C@H](Cc1ccc(O)cc1)NC(=O)[C@H](C)NC(=O)[C@H](Cc1ccccc1)NC(=O)c1ccc(Br)cc1)C(=O)N[C@@H](CCCCNC(=O)CCCC[C@@H]1SC[C@@H]2NC(=O)N[C@@H]21)C(N)=O ({Benzoyl(4-Br)}-FAY[Lys(Me3)]SLK(Biotin)-NH2)
active: [1] | [2] | [3] | [4] | [5] | [6]
